The text below walks through data of a melting point compilation (Tetko et al.; mined from patent text by program, amines drawn as free bases though some values may be those of a salt).

For orientation: melting point means the temperature, or range, at which the solid turns liquid.

Structures are written as SMILES.

Compound `Cc1cc(Cl)ccc1CCN(C(=O)C(C)Cl)c1ccccc1` (centres undefined) showed a melting point of 128 °C.

Compound `O=S(=O)(Cc1ccc(Cc2ccc(NC3=NCCN3)cc2)cc1)NCc1ccccc1` came in with a melting point of 115 to 118 °C.

`CC(=O)C1=C(O)C(=C(C)Nc2ccc(O)cc2)C(=O)OC1=O` yielded a melting point of 223 to 225 °C.

Regarding `COC1(c2cccc(S(=O)(=O)c3ccc4c(c3)oc(=O)n4C)c2)CCOCC1`, the melting point is 163 to 165 °C.

`Cc1nc(-c2ccc(F)cc2)n(-c2ccc(S(N)(=O)=O)cn2)n1` displayed a melting point of 221 to 222 °C.

For the compound `CC1(C)CC(c2c[nH]c(-c3ccc(F)cc3)c2-c2ccncc2)CC(C)(C)N1`, the melting point lay within 242 to 243 °C.

Regarding `O=C(Cc1ccccc1)NC1C(=O)N2C1SC1(CCN(c3ccccc3)CC1)C2C(=O)OCc1ccccc1` (centres undefined), the melting point is 120 to 121 °C.

The compound `Cc1ccc(CNC(=O)c2nc(N3CCOCC3)n(C)c(=O)c2O)cc1F` had a melting point of 166 to 167 °C.

Compound `COC(=O)c1ccc(CCl)nc1` came in with a melting point of 63.5 to 63.8 °C.

Compound `C=CC(O)c1ccc2ccccc2c1` (centres undefined) registered a melting point of 30 to 32 °C.

Compound `CC1(C)O[C@]23C[C@H]1CC[C@]2(C)CCCC3=O` registered a melting point of 55 to 56 °C.

Consider `CCCCC(=O)NCCc1ccc(S(=O)(=O)NC(=O)c2ccc(C(=O)OC)nc2)cc1`, for which the melting point was in the range of 178 to 180 °C.

In turn, `COc1cccc2c(CCN(C3CCC3)C3COc4c(F)ccc(C(N)=O)c4C3)coc12` (centres undefined) displayed a melting point of 135 to 145 °C.

In turn, `Cc1ccc(C2CC(C(C)(C)C)=NN2c2ccc(C(=O)O)cc2)cc1` (centres undefined) gave a melting point of 195 °C.

`COC(=O)Oc1cc2c(c(O)c1C)C(=O)c1c(OC)c3c(c(O)c1C2=O)-c1c(cc2cnn(-c4ccccc4)c(=O)c2c1O)CC3` returned a melting point above 350 °C.

`O=C1CCCC2=C1C(c1ccccc1)C1=C(CCCC1)N2` (centres undefined): the melting point was 252 to 254 °C.

For `O=C1CC(C(=O)O)N(C(=O)CCS)N1` (centres undefined), the melting point was 140 to 142 °C.

`OCC1=CCc2cc3ccccc3cc21` came in with a melting point of 115 to 116 °C.

For `COc1ccc2ncc(S(=O)(=O)N(C)C)c(O)c2c1`, the melting point is above 300 °C.

Consider `N#CC(Sc1ccc(Cl)cc1)=C1SCCN1c1ccccc1`, for which the melting point lay in the range of 144 to 146 °C.

`COC(=O)c1sc2cc(CCl)ccc2c1C` displayed a melting point of 128 to 129 °C.

Take `CCc1nc2c(O)c(CN(C)C)c(C(=O)N(C)C)cc2n1C`: the melting point was 183 to 185 °C.

The compound `COc1cc(-c2nc(-c3ccc(N(C)C)cc3)c(C)o2)ccc1O` had a melting point of 170 to 173 °C.

On to `CC(=NO)C(=O)c1ccccc1OCc1ccccc1`, for which the melting point fell in the range of 78 to 80 °C.

`CN(C)c1ccc(-c2[nH]nc3c2C(=O)c2c(NC(=O)CN4CCC(O)CC4)cccc2-3)cc1` had a melting point of 267 °C.

Compound `COCOCc1nc(-c2ccccc2)oc1C=O` had a melting point of 51 to 52 °C.

`COc1c(NC(=O)c2ccc(-c3ccc(F)cc3)cc2)ccc2cc(CN3CCCC3)cnc12` registered a melting point of 142 to 144 °C.

Consider `CC(=O)OCN1C(=O)CN(CCN2CC(=O)N(COC(C)=O)C(=O)C2)CC1=O`, for which the melting point lay within 178 to 181 °C.

`C=CC(=O)Nc1n[nH]c2cc(Cl)ccc12` had a melting point of 205 °C.

With `Cc1ccc(C(=O)n2nc(Nc3ccc(O)cc3)nc2N)cc1`, the melting point lay within 221 to 223 °C.

Consider `Fc1cc(Cc2cccs2)c(Cl)cc1Cl`, for which the melting point lay in the range of 60 to 61 °C.

`COc1ccc2c(c1)C(C(=O)N(Cc1ccc3c(c1)OCO3)c1ccc(C(C)C)cc1)CCC2` (centres undefined) displayed a melting point of 97 to 98 °C.

The compound `Cc1nc(N)c(C#N)c(-c2ccco2)n1` yielded a melting point of 317 to 320 °C.

As for `COc1cc(O)c(C(=O)C=Cc2ccc(N(C)C)cc2)c(OC)c1`, the melting point amounted to 197 °C.

As for `Cc1cc(O)c2c(ccc3nc(-c4ccco4)[nH]c32)n1`, the melting point is 280 to 282 °C.

For `CC1CCN(c2cc(F)cc(C(=O)Nc3ccc(OCc4n[nH]c(=O)n4-c4ccccc4)c4ccccc34)c2)CC1`, the melting point fell in the range of 140 to 143 °C.

As to `COC(=O)C1=C(C)NC(C)=C(C(=O)OCCN2C(=O)c3ccccc3C2=O)C1c1cccc([N+](=O)[O-])c1` (centres undefined), the melting point stood at 182 °C.

`COc1cc(OC)nc(Sc2cccc(Cl)c2C(=O)O)n1`: the melting point lay in the range of 148 to 151 °C.

For the compound `CC(C)(C)N1C(=O)[C@@H]2C[C@H]1CN2C(=O)[C@@H](O)[C@H](Cc1ccccc1)NC(=O)[C@H](CC(N)=O)NC(=O)OCc1ccccc1`, the melting point is 112 to 115 °C.

The compound `CCCc1nc2c(N)nc3ccccc3c2n1CCOCCCS(=O)(=O)c1ccccc1` gave a melting point of 160 to 161 °C.

On to `Cc1cccc(NC(c2ccc(F)c(F)c2)c2ccc3cccnc3c2O)n1` (centres undefined), for which the melting point lay in the range of 162 to 165 °C.

`C=CC(=O)N(C)CCCCCCCCCCCOc1ccc(C(=O)O)c(C(=O)O)c1` registered a melting point of 95 °C.

`Cc1cc(O)c(C=O)c(C)c1Cl` had a melting point of 90 to 92 °C.

Regarding `S=c1[nH]ccn1C1CCc2ccccc2C1` (centres undefined), the melting point lay in the range of 233 to 234 °C.

As for `C=CCOc1ccc(C(=O)OC2CCC(CCCCCCC(=O)C(=C)C)CC2)cc1` (centres undefined), the melting point came out at 50 °C.

`Nc1ccnc(-c2nc(=O)c3ccccc3s2)c1`: the melting point was 208 °C.

Regarding `O=c1oc(-c2ccc(SC(F)(F)F)cc2)nc2cccc(Cl)c12`, the melting point lay in the range of 135 to 140 °C.

Turning to `Cc1cc(=O)[nH]c(=S)n1C1CCCCC1`, the melting point was 240 to 243 °C.

For `COC(=O)C#CC(=O)c1cc(OC)ccc1OC`, the melting point was in the range of 70 to 71 °C.

`CC[C@H]1Oc2ccccc2C(=O)N2CCC[C@@H]12` returned a melting point of 118 to 119 °C.

The compound `Nc1nc(Cl)nc(N(CCC(=O)O)Cc2ccc(Cl)c(Cl)c2)n1` had a melting point of 105 to 110 °C.

For `COc1ccccc1N1CCN([C@@H]2Cc3c(O)ccc(O)c3C[C@H]2O)CC1` (relative stereo), the melting point lay in the range of 222 to 224 °C.

In turn, `CCN(CC)c1c([N+](=O)[O-])cc(C(F)(F)F)c(Cl)c1[N+](=O)[O-]` displayed a melting point of 35 to 36 °C.

`O=C1c2ccccc2C(=O)c2c(NCC(O)CCl)ccc(NCC(O)CCl)c21` (centres undefined) showed a melting point of 167 to 169 °C.

As to `COCC(=O)N[C@H]1CC[C@H](CCN2CCN(c3nccc4c3CCO4)CC2)CC1`, the melting point is 170 °C.

`CCC(C)Nc1nc2ccccc2c(=O)o1` (centres undefined) registered a melting point of 122 to 123 °C.

For the compound `N#Cc1c(N2CCCC2)cc(-c2ccccc2)c2c1C(=O)c1ccccc1-2`, the melting point lay in the range of 166 to 168 °C.

Compound `COc1ccccc1C1C(C#N)=C(c2ccccc2)Nc2n[nH]cc21` (centres undefined) gave a melting point of 206 °C.

Compound `O=C(Nc1cc(Cl)cc(Cl)c1)c1ccccc1O` gave a melting point of 218 to 219 °C.

Compound `Cc1nc[nH]c1CSCCNC(=N)NS(=O)(=O)c1ccccc1` returned a melting point of 149 to 150 °C.

Regarding `CCCOc1cc(OC)c2c(c1)C(=O)c1cccc(OCCN(CC)CC)c1-2`, the melting point was in the range of 127 to 129 °C.

For the compound `COc1ccc(C(=O)Nc2ccccc2)cc1NC(=S)Nc1cc(C(F)(F)F)cc(C(F)(F)F)c1`, the melting point was in the range of 192 to 193 °C.

The compound `CCSC(=NC(=O)N(C)C)NC(=O)NC` yielded a melting point of 109 to 112 °C.

`COc1ccc(CCN(C)CCOc2ccc(NC(=O)c3cccc4c(=O)c5ccccc5[nH]c34)cc2)cc1` yielded a melting point of 165 °C.

The compound `CCOc1cc(CN2CCN(c3ccc(C(=O)NC4CC4)cc3C)CC2)cc2c1OC(C)C(=O)N2` (centres undefined) had a melting point of 223 to 224 °C.

The compound `COc1cc(OCC(CO)CO)c(-c2cccs2)cc1C=O` registered a melting point of 144 to 145 °C.

Compound `COc1ccc(Cl)cc1-c1c(CCO)c(=O)[nH]c2ccc(C(F)(F)F)cc12` registered a melting point of 216 to 217 °C.

As for `O=c1[nH]nc2c(Br)cccn12`, the melting point lay within 297 to 299 °C.

`CCOP(=O)(CNCc1cccnc1-c1cc(OC)c(O)c(OC)c1)OCC` came in with a melting point of 99 to 101 °C.

In the case of `O=C(Nc1ccc(C(=O)N2CC(C(=O)O)Cc3ccccc32)cc1)c1cc(Cl)cc(Cl)c1` (centres undefined), the melting point is 221 to 223 °C.

In the case of `CCCCCc1cccc2c1C(=O)N(OC1C(O)C(CO)OC1n1cnc3c(N)ncnc31)C2=O` (centres undefined), the melting point was in the range of 159 to 160 °C.

The compound `Cc1cccc2[nH]c3c(c12)CCOC3(C)CC(=O)O` (centres undefined) yielded a melting point of 132 to 134 °C.

`CN1Cc2c(C#Cc3ccccc3)ncn2-c2cccc(Br)c2C1=O`: the melting point lay within 207 to 209 °C.

`COC(=O)COc1ccc(N=C=O)cc1`: the melting point lay within 50 to 53 °C.

As for `O=C(O)Cc1cc(C(=O)C=Cc2ccccc2Cl)ccc1O`, the melting point was found to be 235 °C.

On to `CC(C)(C)c1ccc(/C=C/C(=O)Nc2ccc3ocnc3c2)cc1`, for which the melting point was determined as 177 °C.

Take `COc1ccc(C(=O)N2CCCC2=O)cc1OCc1ccccc1`: the melting point is 92 °C.

On to `O=Cc1cc(O)c(O)c(C=O)c1CCCCC(=O)O`, for which the melting point was in the range of 148 to 152 °C.

With `CC(C)(C)NC(=O)N1CCn2c(Br)c(-c3cccc(F)c3)c(C(N)=O)c2C1`, the melting point was in the range of 184 to 189 °C.

The compound `COc1cc2c(cc1OC)C(COCCCl)OCCC2` (centres undefined) had a melting point of 90 to 91 °C.

As for `CCOC(=O)c1c(N)nn(-c2c(Cl)cc(C(F)(F)F)cc2Cl)c1N`, the melting point was 196 to 197 °C.

In turn, `O=Cc1cc(Cl)ccc1Sc1ccccc1F` showed a melting point of 85.5 to 88 °C.

In turn, `CCNC(=O)[C@H]1N(C(=O)[C@@H](OC(C)=O)[C@H](Cc2ccccc2)NC(=O)c2cc(C)cc(OC(C)=O)c2C)CC(F)(F)C1(C)C` had a melting point of 88 to 93 °C.

In turn, `CCOC(=O)c1cc(-c2ccccc2OC)[nH]c1N` had a melting point of 128 °C.

Compound `Cc1c(C)c2c(c(C)c1OCc1ccccc1)C(c1ccc(N(C)C)cc1)C(C)(C)O2` (centres undefined) returned a melting point of 110 to 112 °C.

Compound `CC(=O)NNc1ccc([N+](=O)[O-])cn1` registered a melting point of 226 to 227 °C.

`CC(C)(C)OC(=O)Nc1ccc2[nH]c(C(=O)OCc3ccccc3)cc2c1` came in with a melting point of 180 to 182 °C.

In the case of `COc1cc2[nH]c(C(=O)O)cc(=O)c2c2cccnc12`, the melting point was 286 to 288 °C.

On to `Cc1ccccc1-c1c(NC(=O)Nc2c(C(C)C)cccc2C(C)C)oc2ccc(Cl)cc12`, for which the melting point was 240 °C.
